Measured values published in publication PMC6100724, “Proteome‐wide analysis of phospho‐regulated PDZ domain interactions” (Molecular Systems Biology, 2018).

How the values were obtained:
Assay in all cases: Phosphomimetic ProP-PD selection with NGS
Scribble PDZ1 = target: T1, Scribble PDZ1 (Homo sapiens, UniProt Q14160); assay type: binding; conditions: for Mean fraction #NGS counts wt peptide / total counts selection / Mean fraction #NGS counts mimetic peptide / total count selection: bait Scribble PDZ1, mean of selections 1-3
T1 construct: human Scribble PDZ1 aa 719–829 in; made in house; host or cells: E. coli BL21 Gold (DE3)
T1 sequence (Q14160 719-829): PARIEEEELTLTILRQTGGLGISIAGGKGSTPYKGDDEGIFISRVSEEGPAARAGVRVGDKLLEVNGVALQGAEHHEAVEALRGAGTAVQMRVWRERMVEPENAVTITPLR
Description: (§1) Phage selections were carried out for four rounds following a protocol by Huang and Sidhu (Huang & Sidhu, 2011) with minor modifications. Non‐specific binding phage was removed by pre‐selections against immobilized GST throughout the selection. The selections against the (pre‐)phosphorylated wild‐type library were performed in 50 mM HEPES (pH 7.4) and 150 mM NaCl (HBS) following the same procedure after pre‐phosphorylation of the library.
(§2) • Immobilize proteins (15 μg in 100 μl PBS) in a 96‐well MaxiSorp microtiter plate (NUNC) overnight at 4°C. • Start a 2YT culture of E. coli Omnimax supplemented with 100 μg/ml tetracycline to retain the F pilus epitope. • Block the wells with 200 μl 0.5% BSA in PBS for 2 h at 4°C. • Precipitate naïve phage library (10^11 cfu per selection) or amplified phage pool from the previous round of selection by adding one‐fifth the volume of PEG/NaCl. • Incubate on ice for 10 min, and pellet precipitated phage by centrifugation at 5,300 g for 15 min. Resuspend the phage pellet in 100 μl PBS per selection. • Add 100 μl of phage solution to the GST‐coated pre‐selection wells and incubate for 1 h. • Transfer the phage solution to the immobilized target proteins and allow it to bind for 2 h at 8°C. • Wash the plate four times with 200 μl cold wash buffer (PBS, 0.05% Tween‐20). • Elute bound phage by incubation with 100 μl log phase (0.6–0.8 OD600) E. coli Omnimax for 30 min at 37°C with shaking (200 RPM). • Add 10^12 cfu/ml M13K07 helper phage for hyperinfection of the bacteria and incubate as above for 45 min. • Transfer the bacterial culture to 10 ml 2YT supplemented with 50 μg/ml carbenicillin, 25 μg/ml kanamycin, and 300 μM IPTG and incubate overnight at 37°C while shaking. • Perform phage pool ELISA to monitor the progress of the selection as described previously (Huang & Sidhu, 2011).
(§3) The naïve library and the enriched phage pools of the third day of selection were amplified and barcoded by PCR and analyzed by NGS as described elsewhere (McLaughlin & Sidhu, 2013; Ivarsson et al, 2014). The reads were demultiplexed using the barcode sequences and filtered by discarding sequences with a Phred quality score under 30. Sequences were mapped to the original library using Bowtie (Langmead et al, 2009) with two mismatches between reads and library sequence. Nucleotide mutations leading to amino acid substitutions were subsequently removed. Cutoff values of NGS counts were assigned for each pool. PWMs were generated based on the remaining peptides (aligned on the C‐termini) using WebLogo (Crooks et al, 2004).
(§4) However, there was no significant correlation of the actual read counts (selection “strength”) and the initial representation in the library, reflecting the strong selection during phage display (wt+mimetic: P‐value: 0.49, ρ = −0.08, mimetic only: P‐value: 0.069, ρ = −0.2, wt only: P‐value: 0.12, ρ = 0.17). Consequently, the amount of reads for each binder after phage display is not a function of the amount of input reads in the naïve library and no modeling based on the input library frequencies to score the interactions is necessary. To allow for comparison between replicate selections, we used the fraction of NGS reads within a certain set, instead of the absolute number of NGS reads, as the absolute numbers differ between different NGS batches.

Scribble PDZ3 = assay type: binding, human; conditions: bait Scribble PDZ3
Description: as §1, §2, §3, §4

DLG1 PDZ2 = target: T2, DLG1 PDZ2 (Homo sapiens, UniProt Q12959); assay type: binding; conditions: mean of selections 1-3, bait DLG1 PDZ2
T2 construct: human DLG1 PDZ2 aa 311–407 in a modified pRSET vector 40; made in house; host or cells: E. coli BL21 Gold (DE3)
T2 sequence (Q12959 311-407): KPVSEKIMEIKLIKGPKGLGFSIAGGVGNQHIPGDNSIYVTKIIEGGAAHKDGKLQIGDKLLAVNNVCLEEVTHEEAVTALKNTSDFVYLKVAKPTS
Description: as §1, §2, §3, §4

[1] = mean of selections 1-3, phosphomimetic peptide
[2] = mean of selections 1-3, wild type peptide

For MKRLTSTRL, the “Mean fraction #NGS counts wt peptide / total counts selection” value (Scribble PDZ1) was 2.8701e-5 and the “Mean fraction #NGS counts wt peptide / total counts selection” value (Scribble PDZ3; mean over selections 1-3) was 3.6122e-5.

With MRLQEETEV the “Mean fraction #NGS counts mimetic peptide / total count selection” value (DLG1 PDZ2) was 0.0001421.

With MRLQEETSV the “Mean fraction #NGS counts mimetic peptide / total count selection” value (DLG1 PDZ2) was 0.0002419.

NSTNMESEL was tested, and the “Mean fraction #NGS counts mimetic peptide / total count selection” value (Scribble PDZ3; [1]) was 0.001938.

For NSTNMESSL, the “Mean fraction #NGS counts wt peptide / total counts selection” value (Scribble PDZ3; [2]) was 0.

With PEHVLQTQI the “Mean fraction #NGS counts mimetic peptide / total count selection” value (Scribble PDZ1) was 0.0001068.

With PIHELETEL the “Mean fraction #NGS counts mimetic peptide / total count selection” value (Scribble PDZ3; [1]) was 0.0005099.

In the case of PIHELETSL, the “Mean fraction #NGS counts mimetic peptide / total count selection” value (Scribble PDZ1) is reported as 0 and the “Mean fraction #NGS counts mimetic peptide / total count selection” value (Scribble PDZ3; mean over selections 1-3) is reported as 0.

With PIHSLEESL the “Mean fraction #NGS counts mimetic peptide / total count selection” value (Scribble PDZ1) was 0 and the “Mean fraction #NGS counts mimetic peptide / total count selection” value (Scribble PDZ3; mean over selections 1-3) was 7.932e-6.

PIHSLETEL was tested, and the “Mean fraction #NGS counts mimetic peptide / total count selection” value (Scribble PDZ1) was 0.002226 and the “Mean fraction #NGS counts mimetic peptide / total count selection” value (Scribble PDZ3; mean over selections 1-3) was 0.002436.

In the case of PIHSLETSL, the “Mean fraction #NGS counts wt peptide / total counts selection” value (Scribble PDZ1) is reported as 0.0009794, the “Mean fraction #NGS counts wt peptide / total counts selection” value (Scribble PDZ3; [2]) is reported as 0.001163 and the “Mean fraction #NGS counts wt peptide / total counts selection” value (Scribble PDZ3; mean over selections 1-3) is reported as 0.001163.

PLHELETEL was tested, and the “Mean fraction #NGS counts mimetic peptide / total count selection” value (Scribble PDZ3; [1]) was 0.00248.

With PLHELETSL the “Mean fraction #NGS counts mimetic peptide / total count selection” value (Scribble PDZ1) was 0 and the “Mean fraction #NGS counts mimetic peptide / total count selection” value (Scribble PDZ3; mean over selections 1-3) was 0.

For PLHSLEESL, the “Mean fraction #NGS counts mimetic peptide / total count selection” value (Scribble PDZ1) was 0 and the “Mean fraction #NGS counts mimetic peptide / total count selection” value (Scribble PDZ3; mean over selections 1-3) was 0.

With PLHSLETEL the “Mean fraction #NGS counts mimetic peptide / total count selection” value (Scribble PDZ1) was 0.01704 and the “Mean fraction #NGS counts mimetic peptide / total count selection” value (Scribble PDZ3; mean over selections 1-3) was 0.01661.

With PLHSLETSL the “Mean fraction #NGS counts wt peptide / total counts selection” value (Scribble PDZ1) was 0.0001571, the “Mean fraction #NGS counts wt peptide / total counts selection” value (Scribble PDZ3; [2]) was 0.0002079 and the “Mean fraction #NGS counts wt peptide / total counts selection” value (Scribble PDZ3; mean over selections 1-3) was 0.0002261.

For PTHVLQTQI, the “Mean fraction #NGS counts wt peptide / total counts selection” value (Scribble PDZ1) was 0.

With QKFRAETAL the “Mean fraction #NGS counts mimetic peptide / total count selection” value (Scribble PDZ1) was 0.002401 and the “Mean fraction #NGS counts mimetic peptide / total count selection” value (Scribble PDZ3; mean over selections 1-3) was 0.001978.

In the case of QKFRASTAL, the “Mean fraction #NGS counts wt peptide / total counts selection” value (Scribble PDZ1) is reported as 0 and the “Mean fraction #NGS counts wt peptide / total counts selection” value (Scribble PDZ3; mean over selections 1-3) is reported as 4.038e-6.

RATEWYSPY was tested, and the “Mean fraction #NGS counts mimetic peptide / total count selection” value (DLG1 PDZ2) was 0.

RATSWYSPY was tested, and the “Mean fraction #NGS counts wt peptide / total counts selection” value (DLG1 PDZ2) was 0.002312.

In the case of RPHTNETEL, the “Mean fraction #NGS counts mimetic peptide / total count selection” value (Scribble PDZ1) is reported as 0.008773 and the “Mean fraction #NGS counts mimetic peptide / total count selection” value (Scribble PDZ3; mean over selections 1-3) is reported as 0.00587.

With RPHTNETSL the “Mean fraction #NGS counts wt peptide / total counts selection” value (Scribble PDZ1) was 0.0005328 and the “Mean fraction #NGS counts wt peptide / total counts selection” value (Scribble PDZ3; mean over selections 1-3) was 0.0004079.

In the case of RPLRREEEI, the “Mean fraction #NGS counts mimetic peptide / total count selection” value (Scribble PDZ3; mean over selections 1-3) is reported as 0.

With RPLRRESEI the “Mean fraction #NGS counts mimetic peptide / total count selection” value (DLG1 PDZ2) was 0, the “Mean fraction #NGS counts wt peptide / total counts selection” value (DLG1 PDZ2) was 3.748e-5 and the “Mean fraction #NGS counts wt peptide / total counts selection” value (Scribble PDZ3; mean over selections 1-3) was 8.219e-5.

For RSEMKPGFV, the “Mean fraction #NGS counts mimetic peptide / total count selection” value (DLG1 PDZ2; phosphomimetic peptide) was 0.

With RSSMKPGFV the “Mean fraction #NGS counts wt peptide / total counts selection” value (DLG1 PDZ2; wild type peptide) was 0.02056.

In the case of SATSVHTSV, the “Mean fraction #NGS counts wt peptide / total counts selection” value (DLG1 PDZ2; wild type peptide) is reported as 0.0005933.

SIDLWETAL was tested, and the “Mean fraction #NGS counts wt peptide / total counts selection” value (Scribble PDZ3; mean over selections 1-3) was 0.004105.

In the case of SPTVHVTEL, the “Mean fraction #NGS counts wt peptide / total counts selection” value (Scribble PDZ1) is reported as 0.0001068 and the “Mean fraction #NGS counts wt peptide / total counts selection” value (Scribble PDZ3; mean over selections 1-3) is reported as 5.538e-5.

For SQSRMETNM, the “Mean fraction #NGS counts mimetic peptide / total count selection” value (Scribble PDZ3; mean over selections 1-3) was 0.0002587.

SRKRTESFL was tested, and the “Mean fraction #NGS counts mimetic peptide / total count selection” value (Scribble PDZ3; mean over selections 1-3) was 0.0004518.

SRKRTSSFL was tested, and the “Mean fraction #NGS counts wt peptide / total counts selection” value (Scribble PDZ3; mean over selections 1-3) was 0.

In the case of TMFLRETEL‐coo‐, the “occurrence in NGS of the selection relative to wild‐type counterpart” value (Scribble PDZ1; phage-displayed peptide, phosphomimetic ProP‐PD selection against Scribble PDZ1) is reported as “three times more”.

VKRLLESVF was tested, and the “Mean fraction #NGS counts mimetic peptide / total count selection” value (Scribble PDZ1) was 0.005379.

VKRLLSSVF was tested, and the “Mean fraction #NGS counts wt peptide / total counts selection” value (Scribble PDZ1) was 0.

In the case of VREKLPSNL, the “Mean fraction #NGS counts mimetic peptide / total count selection” value (Scribble PDZ1) is reported as 0.

With VRKLPETEL the “Mean fraction #NGS counts mimetic peptide / total count selection” value (Scribble PDZ1) was 4.38e-5 and the “Mean fraction #NGS counts mimetic peptide / total count selection” value (Scribble PDZ3; [1]) was 0.01059.

In the case of VRKLPETTL, the “Mean fraction #NGS counts mimetic peptide / total count selection” value (Scribble PDZ3; mean over selections 1-3) is reported as 0.002417.

For VRSKLPSNL, the “Mean fraction #NGS counts wt peptide / total counts selection” value (Scribble PDZ1) was 4.38e-5.

For VTEERETNI, the “Mean fraction #NGS counts mimetic peptide / total count selection” value (Scribble PDZ3; mean over selections 1-3) was 4.038e-6.

With VTSERETNI the “Mean fraction #NGS counts wt peptide / total counts selection” value (Scribble PDZ3; mean over selections 1-3) was 0.001424.
